The values below come from patent US8101389B2, “Bacterial glutamine synthetases and methods of use” (Athenix Corp, priority 2006, dated 2012).

Data set [1] deals with pea leaf glutamine synthetase. The settings on record: Leason et al. (1982); cited from earlier work.
The test system of data set [2] is E. coli cells with AGS1 variant AGS1m2 (pAX3422), F81S, P185S, G218S, I303N, SEQ ID NO:6. Nature of the data set: growth of E. coli on herbicide plates, ags1m2. It is filed as cell-based. The following applies: 50 mM glyphosate; than the other variants, except AGS1m16. The protocol:
(§1) Mutants of the bacterial glutamine synthetase gene ags1 (SEQ ID NO:1) were created by error-prone mutagenesis using the GENEMORPH® Random Mutagenesis kit, and also using oligo-directed mutagenesis as known in the art. However, many methods are available for creating libraries of mutants. The resulting mutants were cloned into a pUC19 vector, electroporated into either XL-1 or DH5 alpha E. coli cells, and selected for growth on M63+ agar media containing antibiotic and 2, 10, or 20 mM glufosinate. Twenty-two clones were identified as growing on 20 mM glufosinate, and picked for further analysis.
ags1m2 was mutagenized by error-prone mutagenesis using GENEMORPH® II Random Mutagenesis kit (Stratagene) according to manufacturer's instructions. Mutagenized PCR product was digested with Sac I and Hind III, and ligated into a pUC vector, similarly digested with Sac I and Hind III. Ligations were transformed into E. coli cells, and plated onto M63+ plates containing antibiotic, and 125 mM glufosinate. Clones growing on 125 mM glufosinate plates were retested on 200 mM glufosinate plates, and compared to similar platings of ags1m1 and ags1m2. […] The DNA sequence of the ags open reading frame in pAX3439 was sequenced, and the gene designated as ags1m16. The DNA sequence of ags1m16 is represented herein as SEQ ID NO:31, and the amino acid sequence is represented herein as SEQ ID NO:32. […]

For data set [3], the system named is E. coli cells with AGS1 variant AGS1m4 (pAX3428), A151T, V214M, S276Y, SEQ ID NO:10. Nature of the data set: growth of E. coli on herbicide plates, ags1m4. The following applies: than the other variants, except AGS1m16. The class given is cell-based. From the text: Mutants of the bacterial glutamine synthetase gene ags1 (SEQ ID NO:1) were created by error-prone mutagenesis using the GENEMORPH® Random Mutagenesis kit, and also using oligo-directed mutagenesis as known in the art. However, many methods are available for creating libraries of mutants. […]

In data set [4] the test system is N[C@@H](CCC(=O)O)C(=O)O. Nature of the data set: enzymatic assay, kinetics of wild-type AGS1. The class given is biochemical, Serratia marcescens. The following applies: other: Table 4. From the text:
(§2) ags1m1 (pAX3421) and ags1m2 (pAX3422) were subcloned into E. coli expression vector pRSF1B (Invitrogen) so as to create an N-terminus encoding a 6Xhis tag, purified and characterized kinetically.
(§3) ags1m21 (SEQ ID NO:41) encodes the AGS1m21 protein (SEQ ID NO:42). AGS1m21 is a variant of AGS1 that contains a similar amino acid change identified in other variants (V214M), as well as two novel mutations (N160S and G167R). This enzyme was expressed in E. coli, purified, and the kinetic values Km(glutamate) and Ki(glufosinate) of the variant measured by enzymatic assay.
(§4) The unmodified enzyme (AGS1) was compared to AGS1(AD-) and AGS1m17(AD-) by carrying out enzymatic assays on both enzymes following purification from E. coli. A glutamine synthetase enzyme from E. coli (GlnA) was also tested.

Data set [5] deals with N[C@@H](CCC(=O)O)C(=O)O. Nature of the data set: enzymatic assay, kinetics of AGS1(AD-). The settings on record: other: Table 5. It is filed as biochemical, Serratia marcescens. How it is done:
ags1(ad-) (SEQ ID NO:43) encoding the AGS1(AD-) protein (SEQ ID NO:44), is a variant of ags1 in which the putative adenylylation site has been removed by mutating the tyrosine at position 398 of AGS1 to a phenylalanine by site directed mutagenesis.
as §4

In data set [6] the test system is N[C@@H](CCC(=O)O)C(=O)O. Nature of the data set: enzymatic assay, kinetics of AGS1m17(AD-). The class given is biochemical, Serratia marcescens. The following applies: other: Table 5. How it is done: ags1m17(ad-) (SEQ ID NO:45) encoding the AGS1m17(AD-) protein (SEQ ID NO:46), is a variant of ags1m17 in which the putative adenylylation site has been removed by mutating the tyrosine at position 398 of AGS1 to a phenylalanine by site directed mutagenesis.
as §4

In data set [7] the test system is N[C@@H](CCC(=O)O)C(=O)O. Nature of the data set: enzymatic assay, kinetics of AGS1m21. The class given is biochemical, Serratia marcescens. The following applies: other: Table 4.
From the text: as §3

The subject of data set [8] is E. coli cells. Nature of the data set: Growth of E. coli transformants on M63 plates containing glufosinate. It is filed as cell-based. The settings on record: for growth on glufosinate minimal M63+ agar media: 2, 10, 20, 50 and 100 mM glufosinate, DH5a E. coli cells. The protocol: To reconfirm that TKH2 and TKH3 confer resistance to 20 mM glufosinate, the purified plasmids were retransformed into DH5α cells. pUC18 was retransformed as a negative control. The transformation mixes were plated directly on M63 minimal plates with or without 20 mM glufosinate.
as §1
ags1m2 was mutagenized by error-prone mutagenesis using GENEMORPH® II Random Mutagenesis kit (Stratagene) according to manufacturer's instructions. Mutagenized PCR product was digested with Sac I and Hind III, and ligated into a pUC vector, similarly digested with Sac I and Hind III. Ligations were transformed into E. coli cells, and plated onto M63+ plates containing antibiotic, and 125 mM glufosinate. Clones growing on 125 mM glufosinate plates were retested on 200 mM glufosinate plates, and compared to similar platings of ags1m1 and ags1m2. […] The DNA sequence of the ags open reading frame in pAX3439 was sequenced, and the gene designated as ags1m16. The DNA sequence of ags1m16 is represented herein as SEQ ID NO:31, and the amino acid sequence is represented herein as SEQ ID NO:32. AGS1m16 differs from AGS1m2 at a single amino acid at position H212 of the protein, which is modified from Histidine (‘H’) to Asparagine (‘N’), and contains a total of five amino acid changes relative to the wild-type AGS1 (see FIG. 1 and Table 3).
Clones expressing AGS1m17, AGS1m18, AGS1m19, or AGS1m20 were all found to be able to grow on plates containing 375 mM glufosinate, whereas no growth of clones expressing AGS1m16 was observed on plates containing 375 mM glufosinate.

Data set [9] has as its system ags1 mutant E. coli. In words: Complementation of a glutamine synthase mutant. The class given is cell-based. The text has this: Clones containing ags1m1 (pAX3421) and ags1m2 (pAX3422) were selected for further work.
The test system of data set [10] is ags1 glutamine synthetase enzyme. Nature of the data set: Enzymatic activity of purified 6Xhis-tagged glutamine synthetases with and without glufosinate. The settings on record: for enzymatic activity compared with wild type AGS1: 5 minute assay, absence of glufosinate. The class given is biochemical, Serratia marcescens.
From the text: as §2

Data set [11] has as its system E. coli cells. In words: Growth of E. coli transformants on M63 plates containing glufosinate. It is filed as cell-based. The following applies: 50 mM glyphosate (so in the source); versus the other variants except AGS1m16.
Data set [12] relates to maize. Nature of the data set: Leaf protein content of T0 transgenic maize plants (Bradford assay). It is filed as in vivo. The text has this:
synags1m16 (SEQ ID NO:47) is an alternate DNA sequence that encodes the AGS1m16 protein (SEQ ID NO:32). synags1m16 was cloned into a shuttle vector to guide overexpression of AGS1m16 in maize. The vector places overexpression of synags1m16 under the control of the Trp5 promoter (U.S. application Ser. No. 11/377,318, filed Mar. 16, 2006 and herein incorporated by reference in its entirety).
Nine transgenic maize plants containing ags1m16 were generated. Protein expression of the AGS1m16 protein was confirmed by Western blot for each of these events.
Nitrogen use efficiency was evaluated for these events by determining the protein content of leaf samples isolated from the T0 plants after four weeks of growth in the greenhouse.
The protein in leaf samples was quantified as follows: Fifty milligrams of leaf material (fresh weight, no midrib) were freeze-dried for dry weight determination. The dehydrated leaf tissue was then ground in the presence of fresh Milli Q water using a MiniBeadbeater-96™ and 2.3 mm stainless-steel beads. The ground leaf tissue was filtered through a 0.45 μm Polyvinylidene Fluoride (PVDF) filter. Bio-Rad Protein Dye was added to leaf samples diluted in water, and a Bradford protein assay was performed and read in the spectrophotometer at 595 nm vs. internal protein standards included in the assay. […]

For the compound `CS(=N)(=O)CCC(N)C(=O)O` (stereo not drawn) [Methione sulfoximine (MSO), Methione sulfoximine], the “inhibition of pea leaf glutamine synthetase” value in data set [1] is on record as “mixed competitive inhibitor”.

As to `O=C(O)CNCP(=O)(O)O` [glyphosate], the “colony growth on 50 mM glyphosate versus other variants” value in data set [2] and in [3] was “grow more quickly” throughout. In the case of “Serratia marcescens ATX 20345 glutamine synthetase AGS1, wild type, SEQ ID NO:2 (Serratia marcescens)”, in data set [4], the Km is recorded as 3.4 mM, the Vmax was determined as 0.10 nmol/min/µg and the kcat stood at 0.08 s⁻¹.

Consider “Serratia marcescens glutamine synthetase AGS1 variant AGS1(AD-), tyrosine 398 to phenylalanine, SEQ ID NO:44 (Serratia marcescens; Y398F)”, for which the Km in data set [5] came to 3.4 mM.

Consider “Serratia marcescens glutamine synthetase AGS1 variant AGS1m17(AD-), F81S, P185S, H212T, V214A, G218S, I303N plus tyrosine 398 to phenylalanine, SEQ ID NO:46 (Serratia marcescens; F81S/G218S/H212T/I303N/P185S/V214A/Y398F)”, for which the Km in data set [6] stood at 14.1 mM.

With “Serratia marcescens glutamine synthetase AGS1 variant AGS1m21, N160S, G167R, V214M, SEQ ID NO:42 (Serratia marcescens; G167R/N160S/V214M)”, the Km in data set [7] amounted to 12.0 mM. For the compound “ags1m1: glufosinate resistant ags1 variant V39I, V214M; SEQ ID NO:3/4”, the “growth on glufosinate minimal M63+ agar media” value in data set [8] is “grow on 2, 10, 20, 50, and 100 mM glufosinate”. The “complementation of ags1 mutant E. coli” value in data set [9] is reported as “complement ags1 mutant E. coli”. The “growth rate in complementation of ags1 mutant E. coli” value in data set [9] (comparison of ags1m1 with ags1m2) is given as “growing at a faster rate than ags1m2”. In [10], the “enzymatic activity compared with wild type AGS1” value is on record as “indistinguishable from wild type enzyme”. “ags1m2: ags1 variant F81S, P185S, G218S, I303N; SEQ ID NO:5/6”: the “speed of colony growth on 50 mM glyphosate” value (from here on “speed of colony growth”) in [11] was “grow more quickly”. Also, the “complementation of ags1 mutant E. coli” value in [9] is recorded as “complement ags1 mutant E. coli”. In addition, the “enzymatic activity compared with wild type AGS1” value in data set [10] is “relatively little enzymatic activity”. Also, in data set [10] (overnight), the enzymatic reaction overnight entry is “appeared to go to completion overnight”. For the compound “ags1m4: ags1 variant A151T, V214M, S276Y; SEQ ID NO:9/10”, the “speed of colony growth” value in data set [11] is “grow more quickly”. In the case of “ags1m7: ags1 variant G168C, V214M, K395R; SEQ ID NO:13/14”, in data set [8], the “growth on glufosinate minimal M63+ agar media” value was “grow on 2, 10, 20, 50, and 100 mM glufosinate”. As for “ags1m11: ags1 variant G56A, V214E; SEQ ID NO:21/22”, the “growth on glufosinate minimal M63+ agar media” value in data set [8] is “grow on 2, 10, 20, 50, and 100 mM glufosinate”. In [11], the “speed of colony growth” value is “grow more quickly”.

Consider “ags1m12: ags1 variant V207I, V214M; SEQ ID NO:23/24”, for which, in [8], the “growth on glufosinate minimal M63+ agar media” value was “grow on 2, 10, 20, 50, and 100 mM glufosinate”.

In the case of “ags1m14: ags1 variant V150M, D166N, V214M, G289S, A420V; SEQ ID NO:27/28”, in data set [8], the “growth on glufosinate minimal M63+ agar media” value was “grow on 2, 10, 20, 50, and 100 mM glufosinate”. With “ags1m16: ags1 variant F81S, P185S, H212N, G218S, I303N; SEQ ID NO:31/32”, the “resistance conferred upon E. coli, compared among variants” value in [8] is on record as “most resistance”. Moreover, the “growth on 200 mM glufosinate plates” value in [8] (M63+ plates, 200 mM glufosinate) is “ability to grow on 200 mM glufosinate plates”. The “Total protein, Avg.” value in data set [12] (average of nine ags1m16 events) was 16.8 mg/g dry. The “higher protein content than the control plants” value in data set [12] (average, versus control plants without ags1m16) worked out at 24%.
